# Measured values reported in US8846652B2, “Therapeutic uses of steroidal compounds” (Hunter-Fleming Limited, priority 2005, dated 2014).
# Peptide text beside a SMILES is read from it.
# What was measured:
# [1] = test system: spared nerve injury (SNI) model of neuropathic pain; assay: Spared nerve injury (SNI) model of neuropathic pain, mechanical allodynia by von Frey filaments; type: in vivo, mice; details: daily oral gavage for two weeks, SNI lesion on day 8, thresholds measured at 2 pm over 7 days after SNI surgery
# Description: All animals were fed standard chow and water ad libitum. Animal care and procedures were performed within the United Kingdom Home Office protocols and guidelines. Age (10-12 weeks, 25-30 g) matched adult mice were used in all experiments (n=8/genotype).
# Mice were anaesthetised with Hypnorm (Fentanyl citrate 0.315 mg/ml+Fluanisone 10 mg/ml, Jansson):Hypnovel (Midazolam 5 mg/ml, Roche):water at a ratio of 1:1:2 at 4 μl/g. The recently described SNI model of neuropathic pain was used (Holmes et al (2003) Proc. Natl. Acad. Sci. U.S.A. 100 6180-6185). The spared nerve injury model (SNI), is performed by ligation of two branches of the sciatic nerve after it trifurcates, leaving one branch intact. […]
# In all tests, the examiner was blind to the genotype of the mice. Mechanical thresholds were measured with a series of calibrated von Frey filaments (Stoeling) from 0.005 g to a maximum of 3.63 g. […] Mechanical sensitivity was assessed on each hind paw, employing the up-down testing paradigm to determine the threshold force required to elicit a withdrawal response to 50% of stimulations [F. E. Holmes, A. Bacon, R. J. Pope, P. A. Vanderplank, N. C. […]
# 11β-hydroxy-Δ4-androstene-3,17-dione was administered to 8 adult male mice aged 10-12 weeks of age daily at 9.00 am by oral gavage for two weeks. […] At 2 pm on the days when testing took place, mechanosensory thresholds were measured.
# GALR1 = biological target: T1, GALR1 (Homo sapiens, UniProt P47211); details: cited from earlier work
# T1 sequence (P47211 1-349): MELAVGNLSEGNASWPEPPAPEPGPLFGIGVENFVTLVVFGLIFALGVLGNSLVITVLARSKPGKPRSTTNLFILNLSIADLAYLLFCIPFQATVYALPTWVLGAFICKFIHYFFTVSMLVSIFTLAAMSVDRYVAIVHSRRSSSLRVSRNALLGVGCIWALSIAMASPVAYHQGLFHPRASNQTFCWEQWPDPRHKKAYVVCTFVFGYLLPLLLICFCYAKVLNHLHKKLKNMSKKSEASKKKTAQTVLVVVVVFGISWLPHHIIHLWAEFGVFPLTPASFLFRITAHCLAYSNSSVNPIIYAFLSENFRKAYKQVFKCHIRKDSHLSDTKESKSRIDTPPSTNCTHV
# GALR2 = biological target: T2, GALR2 (Homo sapiens, UniProt O43603); details: cited from earlier work
# T2 sequence (O43603 1-387): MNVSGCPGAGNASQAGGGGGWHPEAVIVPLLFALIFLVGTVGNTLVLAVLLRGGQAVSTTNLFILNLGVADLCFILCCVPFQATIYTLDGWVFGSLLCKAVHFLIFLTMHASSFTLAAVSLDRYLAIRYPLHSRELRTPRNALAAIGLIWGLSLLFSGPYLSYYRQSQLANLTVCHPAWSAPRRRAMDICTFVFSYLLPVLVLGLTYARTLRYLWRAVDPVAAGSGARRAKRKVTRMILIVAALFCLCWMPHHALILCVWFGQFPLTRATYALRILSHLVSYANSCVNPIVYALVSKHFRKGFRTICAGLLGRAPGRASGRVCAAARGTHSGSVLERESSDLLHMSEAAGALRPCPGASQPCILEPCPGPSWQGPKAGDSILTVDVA
Compound,mechanosensory allodynia (chronic pain behaviour) after SNI surgery [1],agonistic activity at GALR1 (GALR1),agonistic activity at GALR2 (GALR2)
"C[C@]12CCC(=O)C=C1CC[C@@H]1[C@@H]2[C@@H](O)C[C@]2(C)C(=O)CC[C@@H]12 [11β-hydroxy-Δ4-androstene-3,17-dione]",markedly and significantly attenuated mechanosensory allodynia,–,–
Cc1cc(=O)oc2cc(NC(=O)[C@H](CCCCN)NC(=O)[C@H](CC3CCCCC3)NC(=O)OCC3c4ccccc4-c4ccccc43)ccc12 [galnon] (HELM PEPTIDE1{[O=C(OCC1c2ccccc2-c2ccccc21)[*:2]].[Cha].K.[Cc1cc(=O)oc2cc(N[*:1])ccc12]}$$$$V2.0),–,equally activates and has agonistic activity,equally activates and has agonistic activity
